Laboratory results from article PMC11172862, “Mechanistic and Structural Insights on Difluoromethyl-1,3,4-oxadiazole Inhibitors of HDAC6” (International Journal of Molecular Sciences, 2024).
Where two headings read alike, the source gives them in different places.

How the values were obtained:
[1] = biological target: T1, second catalytic domain of zebrafish HDAC6 (zHDAC6-CD2) (Danio rerio, UniProt F8W4B7); set-up: method as in PMID 36528061; conditions: included for comparison; ref [22]; read-out: HDACs IC50, zHDAC6-CD2; cited from earlier work
T1 construct: 8xHis-MBP (TEV-cleavable) (N, cleaved yes); made in house; host or cells: E. coli
T1 sequence (F8W4B7 440-798): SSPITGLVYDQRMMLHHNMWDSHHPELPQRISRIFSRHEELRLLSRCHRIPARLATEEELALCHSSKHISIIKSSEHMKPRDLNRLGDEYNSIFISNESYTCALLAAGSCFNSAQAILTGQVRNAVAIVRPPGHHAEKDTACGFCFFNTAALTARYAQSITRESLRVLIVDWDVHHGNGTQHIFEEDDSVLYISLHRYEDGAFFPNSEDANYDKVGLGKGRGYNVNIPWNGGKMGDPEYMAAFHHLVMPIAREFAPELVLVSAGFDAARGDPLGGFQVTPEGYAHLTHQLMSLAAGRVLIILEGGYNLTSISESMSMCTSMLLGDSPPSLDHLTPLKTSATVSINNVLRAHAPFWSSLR

Human HDAC1 [2] = biological target: T2, Human HDAC1 (Homo sapiens, UniProt Q13547); set-up: method as in PMID 36528061; conditions: included for comparison; ref [22]; read-out: HDACs IC50, HDAC1; cited from earlier work
T2 construct: purchased BPS Bioscience 50051
T2 sequence (Q13547 whole entry): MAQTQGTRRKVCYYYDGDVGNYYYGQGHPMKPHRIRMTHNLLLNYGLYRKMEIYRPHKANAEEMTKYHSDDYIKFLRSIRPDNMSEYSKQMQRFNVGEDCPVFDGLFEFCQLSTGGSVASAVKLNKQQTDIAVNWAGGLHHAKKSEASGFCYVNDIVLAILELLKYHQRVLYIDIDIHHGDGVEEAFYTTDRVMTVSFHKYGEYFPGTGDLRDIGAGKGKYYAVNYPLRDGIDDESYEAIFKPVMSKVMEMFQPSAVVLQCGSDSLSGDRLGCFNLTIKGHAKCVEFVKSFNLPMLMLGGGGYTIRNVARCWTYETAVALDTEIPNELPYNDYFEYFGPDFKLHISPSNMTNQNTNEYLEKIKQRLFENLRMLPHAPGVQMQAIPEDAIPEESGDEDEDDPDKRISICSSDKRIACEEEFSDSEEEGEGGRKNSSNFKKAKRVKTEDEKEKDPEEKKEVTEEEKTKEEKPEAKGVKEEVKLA

zHDAC6-CD2 = biological target: T3, zHDAC6-CD2 (Danio rerio, UniProt F8W4B7); assay: LC-MS time course of DFMO hydrolysis by zHDAC6-CD2; assay type: biochemical, zebrafish; conditions: absence of competitor
T3 construct: 8xHis-MBP (TEV-cleavable) (N, cleaved yes); made in house; host or cells: E. coli
T3 sequence (F8W4B7 440-798): T1 sequence (F8W4B7 440-798)
Protocol: In order to achieve a fast and sufficient conversion of DFMO to DFAcH before the addition of the competitor, and to minimize its effect on the first hydrolysis step, ITF3756 was added after a very short DFMO–enzyme pre-incubation (1 min). Subsequently, at each time point (Figure 4), an aliquot of the reaction mixture was mixed with acetonitrile to unfold the protein and quench the enzymatic activity. Each aliquot was analyzed by liquid LC-MS to determine the compound concentrations.
Experiments like those shown in panel A and C were carried out in the presence of 100 μM ITF3756, which was added after 1 min of ITF5924-enzyme (B) or ITF7209-enzyme (D) pre-incubation. All the experiments were carried out in triplicate. The lines simply join the average values of the experimental points. The incomplete recovery could be attributed to the relatively high enzyme concentration, possibly resulting in coprecipitation phenomena upon the addition of acetonitrile. […]
(§1) obtained in the absence of inhibitor. Such inhibition data were fitted in the GraphPad Prism software (version 10.2.2, La Jolla, CA, USA) using nonlinear regression analysis.
(§2) Eq. 1 P = v௦ ∙t + (vi − vs )[1 − exp(−kobs ∙t)] / kobs
(§3) In Eq. 1, P is the product concentration, expressed as fluorescence intensity, and t is the reaction time (in minutes) (7). For the determination of IC50 values, vo for fast-on inhibitors or vs for slow-on compounds were used to calculate the inhibition, as percentage with respect to the value obtained in the absence of inhibitor. Such inhibition data were fitted in GraphPad Prism software (version 10.2.2, La Jolla, CA, USA) using nonlinear regression analysis. […]
(§4) kobs values on inhibitor concentration was used to determine the mechanism of inhibition. “One-step” or a “two-step” (or “induced-fit) processes are the most common mechanisms of slow binding inhibition (Figure S2) and the resulting “kobs plots” should be linear for mechanism A and hyperbolic […]

human HDAC6 [3] = biological target: T4, human HDAC6 (Homo sapiens, UniProt Q9UBN7); set-up: method as in PMID 36528061; conditions: included for comparison; ref [22]; read-out: HDACs IC50, HDAC6; cited from earlier work
T4 construct: purchased BPS Bioscience 50006
T4 sequence (Q9UBN7 1-1215): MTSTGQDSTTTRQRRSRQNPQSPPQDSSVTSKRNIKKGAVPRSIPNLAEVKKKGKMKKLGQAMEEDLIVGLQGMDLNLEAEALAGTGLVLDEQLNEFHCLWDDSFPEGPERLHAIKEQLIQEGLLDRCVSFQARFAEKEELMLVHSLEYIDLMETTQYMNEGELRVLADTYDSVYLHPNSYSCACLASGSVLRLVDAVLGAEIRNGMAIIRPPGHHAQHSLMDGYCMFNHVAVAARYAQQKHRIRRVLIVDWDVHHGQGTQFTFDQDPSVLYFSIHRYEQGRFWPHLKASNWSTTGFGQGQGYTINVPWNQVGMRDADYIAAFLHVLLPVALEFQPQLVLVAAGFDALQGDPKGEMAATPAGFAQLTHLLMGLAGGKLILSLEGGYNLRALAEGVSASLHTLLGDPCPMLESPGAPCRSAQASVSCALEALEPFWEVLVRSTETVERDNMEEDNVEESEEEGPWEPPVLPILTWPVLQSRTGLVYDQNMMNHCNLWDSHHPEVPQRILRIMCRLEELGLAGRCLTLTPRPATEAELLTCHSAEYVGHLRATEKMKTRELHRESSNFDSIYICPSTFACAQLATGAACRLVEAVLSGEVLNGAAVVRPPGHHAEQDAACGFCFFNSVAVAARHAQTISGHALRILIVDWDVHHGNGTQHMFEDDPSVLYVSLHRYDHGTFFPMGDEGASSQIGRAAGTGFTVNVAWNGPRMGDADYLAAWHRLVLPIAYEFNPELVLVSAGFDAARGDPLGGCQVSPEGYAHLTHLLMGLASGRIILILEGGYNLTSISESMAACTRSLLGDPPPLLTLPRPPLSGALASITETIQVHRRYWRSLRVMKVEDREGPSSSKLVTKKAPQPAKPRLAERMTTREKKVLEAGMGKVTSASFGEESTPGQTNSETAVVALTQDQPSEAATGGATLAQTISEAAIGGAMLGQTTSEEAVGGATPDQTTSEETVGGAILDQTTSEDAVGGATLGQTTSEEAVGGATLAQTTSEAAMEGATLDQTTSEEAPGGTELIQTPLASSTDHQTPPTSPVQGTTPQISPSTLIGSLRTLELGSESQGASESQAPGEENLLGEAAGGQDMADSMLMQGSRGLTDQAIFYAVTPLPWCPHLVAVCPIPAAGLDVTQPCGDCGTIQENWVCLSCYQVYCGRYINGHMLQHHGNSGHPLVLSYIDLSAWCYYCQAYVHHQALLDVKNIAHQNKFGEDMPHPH

human HDAC6 [4] = biological target: T4, human HDAC6; assay: Fluorometric HDAC activity assay (Fluor de Lys Green), human full-length HDAC6; assay type: biochemical; conditions: for IC50: human full-length HDAC6, 25 °C, 3 µM Fluor de Lys Green, read-out: HDACs IC50, HDAC6
Protocol: (§5) Optimized fluorometric enzymatic assays were used as previously reported (5, 6). Briefly, the time-course of the reaction was monitored at 25 °C in HDAC assay buffer [25 mM Tris/HCl, pH 8.0, 130 mM NaCl, 0.05% Tween-20, 10% Glycerol, 1 mg/mL bovine serum albumin (BSA), 0.5 mM tris(2-carboxyethyl)phosphine (TCEP) and 1% DMSO]. Human HDAC1 (Catalog 50051, BPS Bioscience, San Diego, CA, USA), human HDAC6 (Catalog 50006, BPS Bioscience, San Diego, CA, USA) and the second catalytic domain of zebrafish HDAC6 (zHDAC6-CD2) were used at catalytic concentrations of 710 pM, 62.5-125 pM and 0.12 nM, respectively. The Fluor de Lys Green substrate (Enzo Life Sciences, Farmingdale, New York, USA) was included at a concentration close to the Km value, 3 µM for HDAC6 forms and 25 µM for HDAC1. For fast binding inhibitors, the initial velocity (vo) was calculated as (∆F/min) from the slope of the straight line fitting the data points. In the case […]
velocity (vi), the steady-state velocity at long reaction times (vs), and the apparent first-order rate constant (kobs). In Eq 1, P is the product concentration, expressed as fluorescence intensity and t is the reaction time (in minutes) (7). All progress curves are generated by using GraphPad Prism software (version 10.2.2, La Jolla, CA, USA). For IC50 determination, vo for fast-on inhibitors or vs for slow-on compounds were used to calculate the inhibition, as percentage with respect to the value […]
as §1, §2, §3, §4
to equation 2, assuming the validity of mechanism B, where Ki is the dissociation constant of the […]

[5] = biological target: T1, second catalytic domain of zebrafish HDAC6 (zHDAC6-CD2); assay: Fluorometric HDAC activity assay (Fluor de Lys Green), zHDAC6-CD2; assay type: biochemical; conditions: for IC50: 25 °C, 3 µM Fluor de Lys Green, read-out: HDACs IC50, zHDAC6-CD2
Protocol: as §5
velocity (vi), the steady-state velocity at long reaction times (vs), and the apparent first-order rate constant (kobs). In Eq 1, P is the product concentration, expressed as fluorescence intensity and t is the reaction time (in minutes) (7). All progress curves are generated by using GraphPad Prism software (version 10.2.2, La Jolla, CA, USA). For IC50 determination, vo for fast-on inhibitors or vs for slow-on compounds were used to calculate the inhibition, as percentage with respect to the value
(1 picture or pasted object on this page, not shown here) […]
as §1, §2, §3, §4
to equation 2, assuming the validity of mechanism B, where Ki is the dissociation constant of the initial EI complex, whereas k2 and k-2 are the rate constants describing the formation of the tight EI* complex. IC50 reflects the dissociation constant of the EI* complex (Ki*). […]
Samples were kept frozen at -80 °C until the LC-HRMS analysis. The experiment was performed in […]
(ITF6715, ITF7738) and hydrazide (ITF6712, ITF7739) derivatives in the samples was performed with respect to calibration curves obtained with varying concentrations of each compound. Raw data were then imported into GraphPad Prism (version 10.2.2, La Jolla, CA, USA) to generate Figure 4.
The LC-HRMS analysis was carried out using a Vanquish Flex UHPLC (Thermo Fisher Scientific, Waltham, Massachusetts, USA) and a high-resolution mass spectrometer Orbitrap QExactive Focus (Thermo Fisher Scientific, Waltham, Massachusetts, USA), equipped with a Heated Electrospray Ionization, operated in positive mode. A Full Scan analysis was set in the m/z range 50-500 amu. A XSelect HSS T3 50x2.1 mm, 2.5 µm chromatographic column (Waters, Milford, Massachusetts, USA) was used. Mobile phase A consisted of 0.1% formic acid in water and mobile phase B in 0.1% formic acid in acetonitrile. The flow rate was set to 0.5 mL/min, with a gradient program from 3 to 20% B in 3 minutes. The software Chromeleon CDS (version 7.3.2, Thermo Fisher Scientific, Waltham, Massachusetts, USA) was used for acquisition, processing, and signal integration. […]

Human HDAC1 [6] = biological target: T2, Human HDAC1; assay: Fluorometric HDAC activity assay (Fluor de Lys Green), human HDAC1; assay type: biochemical; conditions: 25 °C, 25 µM Fluor de Lys Green; read-out: HDACs IC50, HDAC1
Protocol: as §5
velocity (vi), the steady-state velocity at long reaction times (vs), and the apparent first-order rate constant (kobs). In Eq 1, P is the product concentration, expressed as fluorescence intensity and t is the reaction time (in minutes) (7). […]
In Eq. 1, P is the product concentration, expressed as fluorescence intensity, and t is the reaction time (in minutes) (7). […]

[7] = 5 µM DFMO, 5 µM zHDAC6-CD2, 25 °C

Compound | IC50 [1] | IC50 (Human HDAC1 [2]) | IC50 (human HDAC6 [3]) | IC50 [5] | IC50 (human HDAC6 [4]) | IC50 (Human HDAC1 [6]) | further results
FC(F)c1nnc(-c2ccc(Cn3cc(-c4ccc(NC5=NCCN5)cc4)nn3)cc2)o1 [ITF5924] | 0.0078 ± 0.0004 µM | > 100 µM | 0.0077 ± 0.0003 µM |  |  |  | Time after which DFMO substantially disappeared (zHDAC6-CD2; [7]): 10 min
NNC(=O)c1ccc(Cn2cc(-c3ccc(NC4=NCCN4)cc3)nn2)cc1 [ITF6712] |  | > 100 µM | 0.33 µM |  |  |  | Amount of hydrazide product detectable (zHDAC6-CD2; hydrolysis of 5 µM ITF5924 by 5 µM zHDAC6-CD2, 25 °C): 13%
O=C(NNC(=O)C(F)F)c1ccc(Cn2cc(-c3ccc(NC4=NCCN4)cc3)nn2)cc1 [ITF6715] | 2.3 µM | > 100 µM | 1.6 µM |  |  |  | 
CC(C)(C)c1cn(Cc2ccc(-c3nnc(C(F)F)o3)s2)nn1 [ITF7209] |  |  |  | 0.0067 ± 0.0004 µM |  |  | k2 (rate constant, formation of the tight EI* complex) (human HDAC6 [4]; human HDAC6, fit of kobs to Eq. 2): 0.52 ± 0.01 min⁻¹; Mode of inhibition (human HDAC6 [4]; human full-length HDAC6, progress curves): slow binding inhibitor; Mode of inhibition ([5]; zHDAC6-CD2, progress curves): slow binding inhibitor; k2 (rate constant, formation of the tight EI* complex) ([5]; zHDAC6-CD2, fit of kobs to Eq. 2): 0.86 ± 0.02 min⁻¹; Ki ([5]; zHDAC6-CD2, fit of kobs to Eq. 2, induced-fit model, read-out: Ki (dissociation constant of the initial EI complex)): 0.98 ± 0.04 µM; Rate of DFMO consumption compared to ITF5924 (zHDAC6-CD2; [7]): slower rate of DFMO consumption
CC(C)(C)c1cn(Cc2ccc(C(=O)NNC(=O)C(F)F)s2)nn1 [ITF7738] |  |  |  | 72 µM | > 100 µM | > 100 µM | 
CC(C)(C)c1cn(Cc2ccc(C(=O)NN)s2)nn1 [ITF7739] |  |  |  | 1 µM | 5.1 µM | > 100 µM | 
